How the values were obtained:
Type in all cases: in vivo, human
[1] = system: ASD patient with obsessive thoughts and compulsive behaviors; test: Case study demonstrating reduction of obsessions and compulsions (SUBJECT); settings: L1-79 100-200 mg three times per day
Text: An ASD patient (SUBJECT) has a history of obsessive thoughts and compulsive behaviors that negatively impact their functioning. […]

[2] = system: patients diagnosed with Autistic Spectrum Disorder and one or more of Social Anxiety Disorder and Generalized Anxiety Disorder; test: Double blinded, placebo controlled dose ranging study of L1-79 in autism: social anxiety symptoms (case studies); settings: for SRS/DSM-5 Social Communication scale range after treatment: after 4 weeks on L1-79
Procedure: (§1) Study Title: A Double Blinded, Randomized, Placebo Controlled, Dose Ranging Study for the use of L1-79 in the Treatment of Autism
(§2) Study Design: Blinded, randomized, 4-arm, 4-week treatment period. Treatment arms consist of α-methyl-DL-tyrosine (i.e., L1-79) in doses of 100 mg, or 200 mg, or placebo tid.
(§3) Sample Size:N=30; randomized and 10 open label to 4 groups:
(§4) Study Population: Male subjects between the ages of 13 and 21 years of age, diagnosed with autism who that meet the entry criteria and who are able to complete standardized measures allowing them to participate in this study.
(§5) Major Inclusion Criteria: Males between 13 and 21 years of age, signed informed consent, normal clinical laboratory values, DSM-5 compliant diagnosis of autism spectrum disorder, confirmed by the Autistic Diagnosis Interview Review (ADIR), and by the Autism Diagnosis Observation Schedule (ADOS) score consistent with a diagnosis of autism. No more than one concomitant medication, stable concomitant medications for at least 2 weeks prior to enrollment and no planned changes in psychosocial interventions during the trial.
(§6) Major Exclusion Criteria: Any co-morbidities, including Fragile-X syndrome, epilepsy, Retts syndrome, ADHD, or other disease or syndrome aside from autism that requires treatment. Any other psychiatric disorder, or out of range lab values. DSM-5 diagnosis of schizophrenia, schizoaffective disorder, alcohol use disorder; active medical problems: unstable seizures (>2 in past month), significant physical illness;
(§7) Experimental Treatment: L1-79 at doses of 100 or 200 mg three times daily for 4 weeks.
(§8) Dosage and Administration: L1-79 or placebo, as randomized, were administered orally according to the regimen above.
(§9) Evaluation Schedule: Subjects were evaluated within one week prior to study accession, and weekly throughout the dosing period, and again 4 weeks after the cessation of treatment.
(§10) Study Endpoints: The primary end point was an assessment of the safety of L1-79 based upon reported adverse events and changes in baseline in physical examination parameters that included orthostatic blood pressure, clinical laboratory measures, and ECGs. Secondary endpoints will include the attending physicians assessment as quantified by the Clinical Global Impressions scale based upon changes from baseline in various psychometric tests, including the Vineland Adaptive Behavior Scale 2nd edition (VABS II, VABS) questionnaire, the Autism Diagnostic Observation Schedule (ADOS), the Aberrant Behavior Checklist-Community (ABC-C), the Spencer Anxiety Scale (SAS), the Repetitive Behavior Score-Revised (RBS-R), the Social Responsiveness Scale (SRS), as well as from their personal observations in the clinic, and from videographic information taken during ADOS testing (per this protocol) and anecdotally as provided by caregivers over the course of this study.
Social anxiety symptoms included one or more of fear associated with meeting and talking to people, avoidance of social situations that would elicit significant anxiety in the past, anxiety in anticipation of a social situation, and an inability to initiate conversation with others. The presence of the social anxiety symptoms was recorded at baseline using the Aberrant Behavior Checklist-Community, the Spence Children's Anxiety Scale, the Social Responsiveness Scale, and/or the Clinical Global Impression Scale and direct parent report.
All of the patients were receiving L1-79 100-200 mg three times a day. None of the patients in the Social Anxiety symptom improvement group were receiving medication for Social Anxiety Disorder

[3] = system: patients diagnosed with Autistic Spectrum Disorder and one or more of Obsessive Compulsive Disorder and Attention Deficit/Hyperactivity Disorder; test: Double blinded, placebo controlled dose ranging study of L1-79 in autism: obsessive-compulsive symptoms (case studies)
Procedure: as §1, §2, §3, §4, §5, §6, §7, §8, §9, §10
Obsessive-compulsive symptoms can include ritualistic and repetitive/restricted behaviors, and obsessive thinking make it difficult for the patient to complete a task or concentrate in a conversation.
All of the patients were receiving L1-79 100-200 mg three times a day. None of the patients in the OCD symptom improvement group were receiving medication for Obsessive Compulsive Disorder
Obsessive-compulsive symptoms were initially recorded at baseline, and at end of active treatment using the Repetitive Behavior Scale, the Spence Children's’ Anxiety Scale, the Social Responsiveness Scale, the Clinical Global Impression Scale and direct parent report.

Structure (SMILES): CC(N)(Cc1ccc(O)cc1)C(=O)O (racemic) [L1-79, α-methyl-DL-tyrosine]
- compulsive behaviors/routines [1]: could be delayed or skipped
- obsessive thoughts [1]: significant decrease in obsessive thoughts
- rigid and inflexible thinking [1]: decrease in rigid and inflexible thinking
- social-anxiety symptoms ([2]; ASD patients with SAD and/or GAD, L1-79 100-200 mg three times a day): reductions in social-anxiety symptoms
- ABC-C Social Withdrawal after treatment ([2]; Subject 02-002, baseline 98%, L1-79 100-200 mg tid): 75%
- SRS/DSM-5 Social Communication scale range after treatment ([2]; Subject 02-002, baseline Severe): Moderate
- CGI-I, Social Interaction and Communication ([2]; Subject 02-002, week 4): Much Improved
- ABC-C Social Withdrawal after treatment ([2]; Subject 02-007, baseline 75%, week 4 of treatment): < 40%
- ABC-C Social Withdrawal after treatment ([2]; Subject 02-009, baseline 91%, week 4 of treatment with L1-79): 63%
- ABC-C Social Withdrawal after treatment ([2]; Subject 02-012, baseline 84%, L1-79 100-200 mg tid): < 40%
- CGI-Severity Score after treatment ([2]; Subject 02-012, baseline Moderately Ill): Borderline Ill
- SRS/DSM-5 Social Communication scale range after treatment ([2]; Subject 02-012, baseline Severe): Within Normal Limits
- CGI-I, Social Interaction and Communication ([2]; Subject 02-012, week 4): Much Improved
- CGI-I, Social Interactions and Communication area ([2]; Subject 02-014, L1-79 100-200 mg tid): Much Improved
- CGI-Severity score, Social Interaction area, after treatment ([2]; Subject 02-014, baseline Markedly Ill): Moderately Ill
- SRS/DSM-5 Social Communication scale range after treatment ([2]; Subject 02-016, baseline Mildly Deficient): Within Normal Limits
- CGI-Severity Score, Social Interaction and Communication, after treatment ([2]; Subject 02-016, baseline Mildly Ill): Normal
- CGI-I, Social Interaction and Communication ([2]; Subject 02-016, week 4): Much Improved
- CGI-I, Social Interaction and Communication ([2]; Subject 02-022, week 4 of treatment with L1-79): Much Improved
- obsessive-compulsive symptoms ([3]; ASD patients with OCD and/or ADHD, L1-79 100-200 mg three times a day): reductions in obsessive-compulsive symptoms
- SRS/DSM-5 Repetitive Behavior and Restrictive Interests score after treatment ([3]; Subject 02-002, baseline 96 (Severe), after treatment Moderate, L1-79 100-200 mg tid): 73
- SRS/DSM-5 Repetitive Behavior and Restrictive Interests range after treatment ([3]; Subject 02-003, baseline Severe, week 4, L1-79 100-200 mg tid): Moderate
- CGI-I, Stereotypic and Restricted Interests section ([3]; Subject 02-004, L1-79 100-200 mg tid): Much Improved
- Spence Children's Anxiety Scale OCD score after treatment ([3]; Subject 02-007, baseline 3.0 (anxiety disordered children), 0 = normal/no OCD, L1-79 100-200 mg tid): 0
- SRS/DSM-5 subscale Repetitive Behaviors and Restricted Interests range after treatment ([3]; Subject 02-007, baseline Moderate, L1-79 100-200 mg tid): Within Normal Limits
- CGI-I score (OCD symptoms) ([3]; Subject 02-012, L1-79 100-200 mg tid): Much Improved
- SRS/DSM-5 Repetitive Behavior and Restrictive Interests score after treatment ([3]; Subject 02-012, baseline 80 (Severe), after treatment Within Normal Limits, L1-79 100-200 mg tid): 46
- SRS/DSM-5 Repetitive Behavior and Restrictive Interests score after treatment ([3]; Subject 02-16, baseline 65 (Mild), after treatment Within Normal Limits, L1-79 100-200 mg tid): 46
- CGI-Severity scale, Stereotyped Behaviors and Restricted Interests, after treatment ([3]; Subject 02-16, baseline Mildly Ill, L1-79 100-200 mg tid): Normal
- SRS/DSM-5 Repetitive Behavior and Restrictive Interests score after treatment ([3]; Subject 02-020, baseline 85 (Severe), after treatment Moderate, L1-79 100-200 mg tid): 73
- obsessive interest / preoccupation in conversation ([3]; one patient who could talk only about their obsessive interest at baseline, after 4 weeks on active drug): able to have conversations about things of interest to others
- self-injurious compulsive behaviors ([3]; one patient with self-injurious compulsive behaviors at baseline, after 3 weeks on active drug): completely stopped self-injury
- anxiety-related symptoms ([3]; patients with OCD or SAD in the L1-79 autism study, 100 or 200 mg tid, 4 weeks, oral): improved anxiety-related symptoms
